Measurements: US8246944B2, “Immunotherapeutic agent for the combined treatment of tuberculosis in association with other drugs” (Archivel Farma, S.L., priority 2003, dated 2012)

Key:
[1] = test system: virulent strain of Mycobacterium tuberculosis; assay: […]; bacillary concentration in left lung and spleen; format: in vivo, C57BL/6 mice; conditions: Control: isoniazid alone 25 mg/kg per day, 5 days per week, weeks 9-17
[2] = test system: virulent strain of Mycobacterium tuberculosis; assay: as above; format: in vivo, BALB/c mice; conditions: Control: isoniazid only 25 mg/kg per day, 5 days per week, 6 weeks (weeks 9-15); killed week 15

NNC(=O)c1ccncc1 [isoniazid] was tested, and the “Bacillary concentration, lungs, Week 15” value ([1]; sacrificed week 15) was 2.34 ± 0.24 log10 UFC/mL, the “Bacillary concentration, spleen, Week 15” value ([1]; sacrificed week 15) was 1.47 ± 0.44 log10 UFC/mL and the “Bacillary concentration, lungs, Week 28” value ([1]; sacrificed week 28) was 3.86 ± 0.41 log10 UFC/mL. The “Bacillary concentration, spleen, Week 28” value ([1]; sacrificed week 28) was 3.84 ± 0.48 log10 UFC/mL, the “Bacillary concentration, Lung” value [2] was 7.5 ± 2.89 UFC/mL and the “Bacillary concentration, Spleen” value [2] was 0.75 ± 0.33 UFC/mL.
